US4499084A, “Ara-A Antiviral composition and method of administering the same” (priority 1983, dated 1985)
Converted amounts (≈) assume the structure as drawn. Where two headings read alike, the source gives them in different places.

Columns and labels:
herpes simplex virus = details: cited from earlier work
[1] = test system: oral or genital herpes simplex virus disease; details: cited from earlier work
solubility = assay type: physicochemical; details: organic solvent or mixture; DMSO solvent system; read-out: concentration achieved using DMSO as the solvent system
Description: By using DMSO as the solvent system, it is possible to achieve a concentration of 10 mg/ml or greater. DMSO transports the ara-A directly into the virus infected cell where active viral replication is occurring. The drug interfers with viral DNA synthesis causing inhibition of viral maturation.
DMSO serves two purposes in enhancing the therapeutic action of ara-A. First, DMSO allows a concentration of ara-A that is more than 20 times greater than can be achieved with water alone. […] It is this percutaneous property of DMSO that is apparently responsible for the extraordinary effectiveness of this medication.

man [2] = assay: toxicity and side effects in man; assay type: in vivo; details: average 150 pound man; converted from oral LD50 in rats and mice
Description: Regarding toxicity or other side effects on the patient, extensive pharmacology and toxicity studies ara-A have been carried out in animals and in man. […] This dose level indicates a low order of toxicity to a single parenteral dose. The acute oral LD50 in both rats and mice is greater than 5000 mg/kg. This amount would be equivalent to more than […] in an average 150 pound person. […] In the form used in the present invention and with treatment by topical application, it is highly unlikely that any toxic side effects of ara-A would be observed.

[3] = assay type: physicochemical
Excerpt: There are no special procedures involved in the preparation of the antiviral composition of the present invention. The demineralized water and DMSO can be mixed and the ara-A (and benzocaine if used) dissolved in the DMSO and water solution. The ara-A can be added to the pure DMSO, and water added last. When water and DMSO are mixed, the solution becomes warm because there is a positive heat of solution. […] Ara-A can be recovered from the DMSO and water solution virtually 100 percent as unchanged ara-A.

DNA viruses = details: in vitro and in vivo (animal models or man); cited from earlier work
varicella-zoster virus = details: in vitro and in vivo (animal models or man); cited from earlier work
Epstein-Barr (E-B) virus = details: in vitro and in vivo (animal models or man); cited from earlier work
vaccinia virus = details: in vitro and in vivo (animal models or man); cited from earlier work
cytomegalovirus = details: in vitro and in vivo (animal models or man); cited from earlier work
DNA polymerase = details: cited from earlier work
[4] = cited from earlier work
mice = details: cited from earlier work
rats = details: cited from earlier work
man [5] = details: cited from earlier work
[6] = test system: DNA viruses, including herpes simplex; details: combined with dimethyl sulfoxide (DMSO); cited from earlier work
skin [7] = details: in vivo
Description: This rash, however, usually disappears shortly thereafter with no ill effects. Annals of the New York Academy of Sciences, […]. S. W. Jacob, E. E. Rosenhaum and D. C. Wood, Eds., Vol. 1 Dimethyl Sulfoxide 99, (marcel Depper, Inc., New York, N.Y. 1971); and Annals of the New York Academy of Sciences, Vol. 243 (1975). In the present invention DMSO is diluted to 70% with demineralized water before ara-A is added.

animals and humans = details: cited from earlier work
skin [8] = details: applied to the skin; cited from earlier work
[9] = test system: interstitial spaces and cell walls; details: not told; cited from earlier work
[10] = test system: antiviral activity of ara-A; assay: effect of benzocaine added to the medication on antiviral activity of ara-A; details: benzocaine in the medication
Excerpt: The medication of the present invention has been prepared and used both ways.

patient = assay: effect of benzocaine in DMSO on the patient; assay type: in vivo; details: administered in DMSO

Nc1nc2c(ncn2COCCO)c(=O)[nH]1 [acyclovir]
destruction of herpes simplex virus in a laboratory setting (herpes simplex virus): will destroy the herpes simplex virus
success in combating oral or genital herpes simplex virus disease in a clinical setting [1]: none of these antiviral agents have been successful

O=C(O)CP(=O)(O)O [phosphonacetic acid]
destruction of herpes simplex virus in a laboratory setting (herpes simplex virus): will destroy the herpes simplex virus
success in combating oral or genital herpes simplex virus disease in a clinical setting [1]: none of these antiviral agents have been successful

Nc1ncnc2c1ncn2[C@@H]1O[C@H](CO)[C@@H](O)[C@@H]1O [ara-A, adenine-9-beta-D-arabinofuranoside]
solubility (solubility): ≥ 10000 µg/mL
amount equivalent to the acute oral LD50 in an average 150 pound person (man [2]): more than 750 grams
recovery of unchanged ara-A ([3]; from the DMSO and water solution): ~100%
chemical reaction between ara-A and DMSO ([3]; under the conditions of preparation): no chemical reaction between ara-A and DMSO
antiviral activity against the herpes simplex virus (herpes simplex virus): effective antiviral agent against the herpes simplex virus
destruction of herpes simplex virus in a laboratory setting (herpes simplex virus): will destroy the herpes simplex virus
success in combating oral or genital herpes simplex virus disease in a clinical setting [1]: none of these antiviral agents have been successful
effectiveness against oral or genital herpes ([1]; ointment form (ocular herpes) or infusion for 12 to 24 hours (herpes encephalitis)): Neither of these treatments are effective against oral or genital herpes
activity against a broad spectrum of DNA viruses (DNA viruses): active
activity against varicella-zoster virus (varicella-zoster virus): active
activity against Epstein-Barr virus (Epstein-Barr (E-B) virus): active
activity against vaccinia virus (vaccinia virus): active
activity against cytomegalovirus (cytomegalovirus): active
inhibition of DNA polymerase (DNA polymerase): inhibits the enzyme DNA polymerase
solubility in water ([4]; 25C): 450 µg/mL (≈ 1.68 mM)
solubility in water [4]: highly insoluble in water
acute oral LD50 (mice): greater than 5000 mg/kg
acute oral LD50 (rats): greater than 5000 mg/kg
side effects of massive acute overdosage (man [5]; intravenous form, massive acute overdosage): without any serious side effect
redness and irritation after topical application (man [5]; topical application, some cases): redness and slight irritation
toxicity through topical application (man [5]; topical application): not possible to demonstrate toxicity through topical application

NC(=O)c1ncn([C@@H]2O[C@H](CO)[C@@H](O)[C@H]2O)n1 [ribavirin]
destruction of herpes simplex virus in a laboratory setting (herpes simplex virus): will destroy the herpes simplex virus
success in combating oral or genital herpes simplex virus disease in a clinical setting [1]: none of these antiviral agents have been successful

O=c1[nH]c(=O)n([C@H]2C[C@H](O)[C@@H](CO)O2)cc1I [IdU, 5-iododexyuridine]
clearing of skin lesions [6]: purportedly cleared up skin lesions
prevention of recurrence [6]: prevent recurrence

C[S+](C)[O-] [DMSO, dimethyl sulfoxide]
skin irritation at 70% DMSO (skin [7]): usually nonirritating to normal skin
toxicity of DMSO (animals and humans): essentially nontoxic
skin reaction to undiluted DMSO (skin [8]): sometimes may cause an itching or burning sensation with redness or a rash
permeation of interstitial spaces and cell walls [9]: unique ability of permeating the interstitial spaces and cell walls

CCOC(=O)c1ccc(N)cc1 [benzocaine]
effect of benzocaine on antiviral activity of ara-A [10]: does not impair the antiviral activity of ara-A
deleterious effect of benzocaine on the patient (patient): Nor does the benzocaine appear to have any deleterious affect on the patient

O=CC[C@@H](O)[C@H](O)[C@H](O)CO [2-deoxy-d-glucose]
destruction of herpes simplex virus in a laboratory setting (herpes simplex virus): will destroy the herpes simplex virus
success in combating oral or genital herpes simplex virus disease in a clinical setting [1]: none of these antiviral agents have been successful
